According to patent publication US20130338178A1, “SIRTUIN MODULATORS AS INHIBITORS OF CYTOMEGALOVIRUS” (THE TRUSTEES OF PRINCETON UNIVERSITY, priority 2011, published 2013):
Peptide text beside a SMILES is read from it.

Experiments:
SIRT2 [1] = biological target: T1, SIRT2 (Homo sapiens, UniProt Q8IXJ6); details: cited from earlier work
T1 sequence (Q8IXJ6 1-389): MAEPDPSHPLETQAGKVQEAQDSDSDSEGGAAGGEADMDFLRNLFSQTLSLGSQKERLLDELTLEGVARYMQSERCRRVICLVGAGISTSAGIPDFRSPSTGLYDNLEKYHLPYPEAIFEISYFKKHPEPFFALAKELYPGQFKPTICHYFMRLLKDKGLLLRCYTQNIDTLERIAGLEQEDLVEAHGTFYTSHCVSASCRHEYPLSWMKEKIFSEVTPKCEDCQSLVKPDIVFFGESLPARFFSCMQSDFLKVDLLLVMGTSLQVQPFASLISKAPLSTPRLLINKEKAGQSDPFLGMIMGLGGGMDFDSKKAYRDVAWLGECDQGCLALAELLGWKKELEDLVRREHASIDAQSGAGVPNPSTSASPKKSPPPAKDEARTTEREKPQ

Sirt6 = Sirt6 (Homo sapiens, UniProt Q8N6T7); details: cited from earlier work
SIRT1 [2] = biological target: T2, SIRT1 (Homo sapiens, UniProt Q96EB6); details: n = 2; cited from earlier work
T2 sequence (Q96EB6 1-747): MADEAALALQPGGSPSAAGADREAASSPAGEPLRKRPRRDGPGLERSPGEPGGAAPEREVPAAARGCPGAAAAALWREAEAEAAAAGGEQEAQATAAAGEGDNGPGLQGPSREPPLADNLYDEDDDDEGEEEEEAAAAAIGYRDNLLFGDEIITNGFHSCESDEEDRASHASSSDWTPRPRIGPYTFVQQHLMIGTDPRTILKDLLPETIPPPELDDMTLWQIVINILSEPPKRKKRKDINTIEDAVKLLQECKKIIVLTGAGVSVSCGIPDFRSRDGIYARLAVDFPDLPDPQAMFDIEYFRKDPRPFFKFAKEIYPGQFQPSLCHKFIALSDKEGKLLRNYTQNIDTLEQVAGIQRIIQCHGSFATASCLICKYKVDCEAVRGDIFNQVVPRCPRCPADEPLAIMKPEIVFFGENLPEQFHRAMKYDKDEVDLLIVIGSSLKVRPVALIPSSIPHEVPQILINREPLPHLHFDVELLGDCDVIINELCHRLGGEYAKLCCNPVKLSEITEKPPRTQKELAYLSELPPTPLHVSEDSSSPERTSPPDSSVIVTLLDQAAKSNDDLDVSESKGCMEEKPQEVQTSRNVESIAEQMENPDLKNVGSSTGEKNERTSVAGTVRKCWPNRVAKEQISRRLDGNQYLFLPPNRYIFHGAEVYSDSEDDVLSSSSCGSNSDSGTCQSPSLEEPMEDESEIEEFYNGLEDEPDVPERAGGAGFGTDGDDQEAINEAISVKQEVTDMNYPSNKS

SIRT2 [3] = biological target: T1, SIRT2; details: cited from earlier work; for Inhibition (at 60 μM ± SE (%)) SIRT2: n = 2
sirtuin = biological target: T3, sirtuin (Homo sapiens, UniProt Q8IXJ6); details: cited from earlier work
T3 sequence (Q8IXJ6 2-389 limits assumed): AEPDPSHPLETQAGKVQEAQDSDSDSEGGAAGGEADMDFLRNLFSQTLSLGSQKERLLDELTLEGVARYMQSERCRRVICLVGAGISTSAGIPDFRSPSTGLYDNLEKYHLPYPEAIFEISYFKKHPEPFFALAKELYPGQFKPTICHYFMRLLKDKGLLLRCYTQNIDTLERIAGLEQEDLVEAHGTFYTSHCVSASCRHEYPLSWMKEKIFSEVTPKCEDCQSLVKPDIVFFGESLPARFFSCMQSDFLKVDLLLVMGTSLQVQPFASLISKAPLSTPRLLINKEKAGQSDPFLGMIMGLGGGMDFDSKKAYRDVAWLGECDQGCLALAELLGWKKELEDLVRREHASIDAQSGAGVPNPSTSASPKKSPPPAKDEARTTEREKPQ

Hst2 = Hst2 (Saccharomyces cerevisiae, UniProt P53686); details: cited from earlier work
SIRT1 [4] = biological target: T2, SIRT1; details: cited from earlier work
HCMV [5] = assay: Yield of infectious HCMV from drug-treated infected MRC5 fibroblasts; assay type: cell-based, human cytomegalovirus; details: FIG. 5
SIRT1 [6] = biological target: T2, SIRT1; details: cited from earlier work; remark: listed apart in the source
Sirt5 = biological target: T4, Sirt5 (Homo sapiens, UniProt Q9NXA8); details: cited from earlier work
T4 sequence (Q9NXA8 37-310): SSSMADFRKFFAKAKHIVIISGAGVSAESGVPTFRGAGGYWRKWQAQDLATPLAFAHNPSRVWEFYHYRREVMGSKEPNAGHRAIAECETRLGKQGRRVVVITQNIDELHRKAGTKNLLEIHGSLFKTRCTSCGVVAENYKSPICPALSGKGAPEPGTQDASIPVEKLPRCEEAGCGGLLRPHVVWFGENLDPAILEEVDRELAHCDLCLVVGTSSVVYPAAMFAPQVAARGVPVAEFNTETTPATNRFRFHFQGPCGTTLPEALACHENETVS

HCMV [7] = assay type: cell-based, human cytomegalovirus
[8] = tested on: Influenza A (WSN/33/A, PR8); assay type: cell-based, influenza A virus
HCMV pUL99 = assay: Late viral pUL99 expression and cytopathic effect in HCMV infected MRC5 cells; assay type: cell-based, human cytomegalovirus; details: 10 μM; data not shown

Chain of Sirt6 (Q8N6T7 whole entry): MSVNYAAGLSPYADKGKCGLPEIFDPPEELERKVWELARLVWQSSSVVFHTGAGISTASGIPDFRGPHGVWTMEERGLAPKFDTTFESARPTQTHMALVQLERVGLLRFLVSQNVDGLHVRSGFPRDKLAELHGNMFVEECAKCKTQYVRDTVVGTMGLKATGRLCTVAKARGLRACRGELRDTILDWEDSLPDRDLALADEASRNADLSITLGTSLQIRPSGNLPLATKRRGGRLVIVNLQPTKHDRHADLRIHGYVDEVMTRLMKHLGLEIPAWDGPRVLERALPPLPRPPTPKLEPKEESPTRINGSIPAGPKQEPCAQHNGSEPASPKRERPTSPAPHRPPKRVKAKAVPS
Chain of Hst2 (P53686 whole entry): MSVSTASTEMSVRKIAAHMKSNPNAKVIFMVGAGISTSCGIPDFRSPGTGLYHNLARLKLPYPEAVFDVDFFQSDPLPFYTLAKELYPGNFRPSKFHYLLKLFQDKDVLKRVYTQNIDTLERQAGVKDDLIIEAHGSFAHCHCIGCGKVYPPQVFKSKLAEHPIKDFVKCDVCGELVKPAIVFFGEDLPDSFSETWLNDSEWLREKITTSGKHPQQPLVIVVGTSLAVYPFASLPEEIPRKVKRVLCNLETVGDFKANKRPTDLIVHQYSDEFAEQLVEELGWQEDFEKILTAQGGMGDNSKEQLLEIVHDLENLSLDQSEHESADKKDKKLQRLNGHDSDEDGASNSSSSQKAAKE

SMILES: O=C1c2ccccc2C(=O)c2c(NCc3cc4c5c(ccc6c7ccc8c9c(cc(Nc%10cccc%11c%10C(=O)c%10ccccc%10C%11=O)c(c3c56)c97)-c3ccccc3C8=O)C(=O)c3ccccc3-4)cccc21 [CSC6]
- Sirt2 effect (SIRT2 [1]): inhibition
- Sirt6 effect (Sirt6): inhibition

SMILES: O=c1[nH]c(=S)[nH]c(-c2cccc(Br)c2)c1Cc1c(O)ccc2ccccc12 [Compd 6viii]
- Inhibition (at 60 μM ± SE (%)) SIRT1 (SIRT1 [2]): 4.8 ± 1%
- Inhibition (at 60 μM ± SE (%)) SIRT2 (SIRT2 [3]): 6.6 ± 3%

SMILES: Oc1cccc(CNc2ccc(NCc3cccc(O)c3)cc2)c1 [4c]
- inhibition at 200 μM ± SD, % (sirtuin): 8 ± 0.4%

SMILES: COc1cccc(C=Nc2ccc(N=Cc3cccc(OC)c3)cc2)c1 [3g]
- inhibition at 200 μM ± SD, % (sirtuin): 20 ± 1.2%

SMILES: O=c1[nH]c(=S)[nH]c(-c2ccc(I)cc2)c1Cc1c(O)ccc2ccccc12 [Compd 6v]
- Inhibition (at 60 μM ± SE (%)) SIRT1 (SIRT1 [2]): 7.7 ± 1%
- Inhibition (at 60 μM ± SE (%)) SIRT2 (SIRT2 [3]): 7.7 ± 1%

SMILES: CC(C)CCCCCCCCC[C@@H]1CC(=O)NC(CCC(=O)O)C(=O)N[C@@H](CC(C)C)C(=O)N[C@H](CC(C)C)C(=O)N[C@@H](C(C)C)C(=O)N[C@@H](CC(=O)O)C(=O)N[C@H](CC(C)C)C(=O)N[C@@H](CC(C)C)C(=O)O1 (stereo partly drawn) [Surfactin, surfactin] (HELM PEPTIDE1{[O=C(O)CCC(N[*:1])C(=O)[*:2]].L.[dL].V.D.[dL].L}|CHEM1{[CC(C)CCCCCCCCC[C@H](CC(=O)[*:1])O[*:2]]}$PEPTIDE1,CHEM1,1:R1-1:R1|PEPTIDE1,CHEM1,7:R2-1:R2$$$V2.0)
- IC50 (Hst2): > 700 µM
- IC50 (SIRT1 [4]): > 600 µM

SMILES: Oc1ccc(CNc2ccc(NCc3ccc(O)cc3)cc2)cc1 [4d]
- inhibition at 200 μM ± SD, % (sirtuin): 14 ± 0.5%

SMILES: O=C1OC2(c3ccc(O)cc3Oc3cc(O)ccc32)c2c1c(-c1ccccc1)c(-c1ccccc1)c(-c1ccccc1)c2-c1ccccc1 [CSC28]
- Sirt2 effect (SIRT2 [1]): inhibition
- Sirt6 effect (Sirt6): activation

SMILES: Cc1ccc2[nH]c3c(c2c1)CCCC3C(N)=O (stereo not drawn) [Indole 2]
- IC50 (Hst2): 14.5 ± 0.6 µM
- IC50 (SIRT1 [4]): 0.64 ± 0.06 µM

SMILES: O=c1[nH]c(=S)[nH]c(-c2ccc(Br)cc2)c1Cc1c(O)ccc2ccccc12 [Compd 6b]
- IC50 (SIRT2 [3]; determined for compounds with over 60% inhibition at 60 μM): > 90 µM

SMILES: CN(C)CCCCC(=O)Nc1ccc(NC(=S)NC(=O)c2ccc(C(C)(C)C)cc2)cc1 [Tenovin 6]
- production of infectious HCMV (HCMV [5]): blocked
- IC50 (Hst2): > 100 µM

SMILES: c1cc2c(ccc3ncc[nH]c32)n1 [Pyrroloquinoxaline]
- activation at this concentration (SIRT1 [6]; 10 μM): *233% activation at this concentration
- EC1.5: The concentration to activate 1.5-fold (SIRT1 [6]): 10 µM

SMILES: O=Cc1ccc2c(c1)C(=O)c1ccc3c4ccc5c6c(ccc(c7ccc-2c1c37)c64)-c1ccc(C(=O)O)cc1C5=O [CSC14]
- Sirt2 effect (SIRT2 [1]): inhibition
- Sirt5 effect (Sirt5): inhibition

SMILES: O=c1[nH]c(=S)[nH]c(-c2cccc(Cl)c2)c1Cc1c(O)ccc2ccccc12 [Compd 6ix]
- Inhibition (at 60 μM ± SE (%)) SIRT1 (SIRT1 [2]): 11.3 ± 1%
- Inhibition (at 60 μM ± SE (%)) SIRT2 (SIRT2 [3]): 7.6 ± 6%

SMILES: O=c1[nH]c(=S)[nH]c(-c2ccccc2Br)c1Cc1c(O)ccc2ccccc12 [Compd 6vii]
- Inhibition (at 60 μM ± SE (%)) SIRT1 (SIRT1 [2]): 19.7 ± 1%

SMILES: C/C(=C1/C=C(c2ccc3ccccc3c2)OC1=O)c1ccc(C(C)C)cc1 [CSC9]
- Sirt2 effect (SIRT2 [1]): inhibition
- Sirt5 effect (Sirt5): activation^c

SMILES: O=C1CCc2c(ccc3ccccc23)O1 [Splitomycin]
- IC50 (Hst2): > 600 µM

SMILES: O=S(=O)(c1cccc(C(F)(F)F)c1)N1c2ccccc2-n2cccc2C1c1cccnc1 (stereo not drawn) [CSC38]
- Sirt2 effect (SIRT2 [1]): inhibition
- Sirt5 effect (Sirt5): activation
- Sirt6 effect (Sirt6): activation

SMILES: CN1CC(C(=O)NC2(C)OC3(O)C4CCCN4C(=O)C(Cc4ccccc4)N3C2=O)C=C2c3cccc4[nH]cc(c34)CC21 (stereo not drawn) [CSC21]
- Sirt2 effect (SIRT2 [1]): inhibition
- Sirt5 effect (Sirt5): inhibition
- Sirt6 effect (Sirt6): inhibition

SMILES: COc1cc(C(=O)Nc2ccccc2-c2cn3c(CN4CCNCC4)csc3n2)cc(OC)c1OC [SRT1460]
- EC1.5: The concentration to activate 1.5-fold (SIRT1 [6]): 2.9 µM

SMILES: O=C(Nc1ccccc1-c1cn2c(CN3CCNCC3)csc2n1)c1cnc2ccccc2n1 [SRT1720]
- EC1.5: The concentration to activate 1.5-fold (SIRT1 [6]): 0.16 µM

SMILES: [H]/N=C(\c1ccc2ccccc2c1)c1ccccc1Cc1ccccc1 [CSC22]
- Sirt2 effect (SIRT2 [1]): inhibition

SMILES: Oc1cccc(C=Nc2ccc(N=Cc3cccc(O)c3)cc2)c1 [3c]
- inhibition at 200 μM ± SD, % (sirtuin): 12 ± 0.9%

SMILES: O=C1C2C3c4ccccc4C(c4ccccc43)C2C(=O)N1c1ccc(OCc2ccccc2)cc1 (stereo not drawn) [CSC34]
- Sirt2 effect (SIRT2 [1]): inhibition
- Sirt6 effect (Sirt6): activation

SMILES: Oc1ccccc1CNc1ccc(NCc2ccccc2O)cc1 [4b]
- inhibition at 200 μM ± SD, % (sirtuin): 27 ± 2.4%

SMILES: O=c1[nH]c(=S)[nH]c(-c2ccc(C(F)(F)F)cc2)c1Cc1c(O)ccc2ccccc12 [Compd 6vi]
- Inhibition (at 60 μM ± SE (%)) SIRT1 (SIRT1 [2]): 15.1 ± 1%
- Inhibition (at 60 μM ± SE (%)) SIRT2 (SIRT2 [3]): 6.7 ± 1%

SMILES: c1ccc(CNc2ccc(NCc3ccccc3)cc2)cc1 [4a]
- inhibition at 200 μM ± SD, % (sirtuin): 21 ± 1.7%

SMILES: [H]/N=C(\c1cc(C)cc(C)c1)c1ccccc1Cc1cccc2ccccc12 [CSC23]
- Sirt2 effect (SIRT2 [1]): inhibition

SMILES: Oc1ccccc1C=Nc1ccc(N=Cc2ccccc2O)cc1 [3b]
- inhibition at 200 μM ± SD, % (sirtuin): 56 ± 8.2%

SMILES: CC(C(=O)Nc1cccc(/N=C/c2c(O)ccc3ccccc23)c1)c1ccccc1 (stereo not drawn) [Salermide]
- production of infectious HCMV (HCMV [5]): blocked
- inhibition of HCMV production by a factor of (HCMV [7]): about 5
- inhibition of the production of HCMV progeny by a factor of (HCMV [7]): ~80
- production of infectious Influenza A progeny [8]: inhibited

SMILES: O=c1[nH]c(=S)[nH]c(-c2ccc(Cl)cc2)c1Cc1c(O)ccc2ccccc12 [Compd 6iv]
- Inhibition (at 60 μM ± SE (%)) SIRT1 (SIRT1 [2]): 13.7 ± 1%
- Inhibition (at 60 μM ± SE (%)) SIRT2 (SIRT2 [3]): 20.1 ± 1%

SMILES: Cc1ccc(C(=O)Nc2ccc(S(=O)(=O)O)c3cc(S(=O)(=O)O)cc(S(=O)(=O)O)c23)cc1NC(=O)c1cccc(NC(=O)Nc2cccc(C(=O)Nc3cc(C(=O)Nc4ccc(S(=O)(=O)O)c5cc(S(=O)(=O)O)cc(S(=O)(=O)O)c45)ccc3C)c2)c1 [Suramin, suramin]
- IC50 (Hst2): 240 ± 70 µM

SMILES: O=S1(=O)C(c2ccccc2)C(N2CCCCC2)C1C1CC2c3ccccc3C1c1ccccc12 (stereo not drawn) [CSC33]
- Sirt5 effect (Sirt5): activation
- Sirt6 effect (Sirt6): activation

SMILES: c1cnc2ocnc2c1 [Oxazolopyridine]
- EC1.5: The concentration to activate 1.5-fold (SIRT1 [6]): 0.09 µM

SMILES: Oc1ccc(C=Nc2ccc(N=Cc3ccc(O)cc3)cc2)cc1 [3d]
- inhibition at 200 μM ± SD, % (sirtuin): 22 ± 1.6%

SMILES: NC(=O)C1CCCc2c1[nH]c1ccc(Cl)cc21 (stereo not drawn) [EX-527]
- accumulation of late viral pUL99 protein (HCMV pUL99): increased

SMILES: COc1ccccc1C=Nc1ccc(N=Cc2ccccc2OC)cc1 [3f]
- inhibition at 200 μM ± SD, % (sirtuin): 13 ± 0.5%

SMILES: C(=Nc1ccc(N=Cc2ccccc2)cc1)c1ccccc1 [3a]
- inhibition at 200 μM ± SD, % (sirtuin): 35 ± 1.4%
